Values joined by “and” are separate entries in the source; they are usually repeats but may differ in a detail not shown here. Identical values can stand only once.
How the values were obtained:
[1] = tested on: thrombin-activated platelets; test: Serotonin release assay; format: cell-based; conditions: p < 0.05
Protocol: (§1) Figure 7 Effect of PA, IVA, and 4-HA on granule secretion. Aliquots of washed platelets pre-treated with or without the compounds for 5 min were stimulated with 0.25 U/mL thrombin at 37 °C for 5 min. After stimulation, the platelets were centrifuged, and the supernatants were collected. Using these supernatants, ATP (A) or serotonin (B) release was determined according to the manufacturer’s instructions. Each value is the mean ± SD of triplicate measurements. # p < 0.01, compared to each control groups. * p < 0.05 and ** p < 0.01, compared to only thrombin-treated control groups. Thrombin, thrombin treated only; PA10-100, 10–100 μg of PA treated; IVA10-100, 10–100 μg of IVA treated; 4-HA10-100, 10–100 μg of 4-HA treated.
Aliquots of washed platelets (250 × 10^6/mL) pre-treated with the compounds for 5 min were activated with 0.25 U/mL of thrombin in the presence of 1 mM of Ca^2+ for 5 min at 37 °C, according to a previously described method, with slight modifications. After stimulation, the reaction solution was centrifuged at 4 °C and 12,000× g for 5 min, and the supernatant was collected for subsequent use. Serotonin release was determined using a serotonin enzyme-linked immunosorbent assay kit (Labor Diagnostika Nord GmbH & Co., Nordhorn, Germany), according to the manufacturer’s instructions.

[2] = tested on: platelet aggregation/activation in whole blood; test: PFA-100 platelet function assay, collagen/epinephrine cartridge; format: cell-based; conditions: for Closure time: control 118.6 ± 2.1 s
Protocol: The effects of the compounds on platelet aggregation/activation and adherence in whole blood under conditions of high shear stress flow were evaluated using a collagen/epinephrine cartridge (Dade Behring, Marburg, Germany) and platelet function analyzer (PFA-100), as previously described. Blood samples were drawn from healthy donors using 3.8% (w/v) sodium citrate. Aliquots of whole blood were treated with different concentrations of compounds and incubated for 5 min at room temperature. Blood samples were added to a collagen/epinephrine cartridge, and the time required for occlusion of the aperture was measured using the analyzer and reported as the closure time. Saline-treated blood was used as a control.

[3] = tested on: fibrin polymers and clots (fibrinogen, thrombin, CaCl2); test: Turbidity assay of fibrin polymer/clot formation; format: biochemical, Human; conditions: 1, 2, 5, 10, and 20 μg; 2000 s
Protocol: Inhibition of fibrin clot formation was determined using a turbidity assay as previously described. The reaction mixtures were prepared by the addition of the compounds, 10 IU u-PA as a positive control (PC), or vehicle as a negative control (NC) 2 in a volume of 100 μL of 5 mM CaCl2, 0.5 U/mL of thrombin, and […] fibrinogen in 20 mM Tris-HCl (pH 7.4). The mixture was incubated for 5 min at 37 °C, and turbidity was monitored at 405 nm every 1 min for 2000 s using a microplate reader (Molecular Devices, Sunnyvale, CA, USA). The clot density was presented as a percentage of inhibition.

human plasma = test: Coagulation assay, APTT; format: biochemical; conditions: for APTT, fold of control / activated partial thromboplastin time (APTT): 100 μg; for activated partial thromboplastin time (APTT): control 39.5 ± 1.5 s, p < 0.01
Protocol: A coagulation assay was performed to evaluate the prolongation potential of the compounds in blood coagulation by measuring APTT, PT, and TT, as previously described. After pretreatment of the compounds with human plasma for 10 min, APTT, PT, and TT were determined by a coagulometer (Thrombostat 1) manufactured by Behnk Elektronik, Germany.

mouse blood clots = test: In vitro antithrombotic activity assay using blood clot; conditions: vs NC group treated with saline, p < 0.01, 1 h
Protocol: To determine the in vitro antithrombotic activity, a blood clot assay was performed based on a previously described method. All experimental procedures were performed in accordance with the related ethical regulations of Gwangju University, and were approved by the Institutional Animal Care and Use Committee of Jeonnam Institute of Natural Resources Research, Jangheung, South Korea (2021-JINR2001). Fresh mouse blood clots (40 μg) treated with the compounds, 10–20 IU u-PA as PC 1–2, or saline as NC were incubated for 1 h. After incubation, blood clot degradation in each group was analyzed using absorbance values at a wavelength of 410 nm. The maximum absorbance wavelength was determined by measuring the absorption spectra in the wavelength range of 340–850 nm.

[4] = tested on: thrombin-activated platelets; test: ATP release assay; format: cell-based; conditions: 10–100 μg, vs thrombin group, p < 0.05; except 10 μg of 4-HA (p = 0.915)
Protocol: as §1
Aliquots of washed platelets (250 × 10^6/mL) pre-treated with the compounds for 5 min were activated with 0.25 U/mL of thrombin for 5 min at 37 °C, according to a previously described method, with slight modifications. After activation, the supernatant from centrifuged platelets was used. ATP release was evaluated using an ATP assay kit (Biomedical Research Service Center, Buffalo, NY, USA), according to the manufacturer’s instructions.

Structure (SMILES)	thrombin-stimulated serotonin secretion ([1]; 100 μg)	Closure time ([2]; 10 μg) [s]	Closure time ([2]; 20 μg) [s]	Closure time, fold of control ([2]; 50 μg) [fold]	Closure time ([2]; 50 μg)	Closure time, fold of control ([2]; 100 μg) [fold]	Closure time ([2]; 100 μg)	fibrin polymer/clot formation (turbidity at 405 nm) [3]	APTT, fold of control (human plasma) [fold]	activated partial thromboplastin time (APTT) (human plasma) [s]	blood clot degradation (mouse blood clots)	thrombin-stimulated ATP secretion levels [4]	thrombin-stimulated serotonin secretion ([1]; 50–100 μg)	APTT, dependence on concentration (human plasma)
O=C(O)c1ccc(O)cc1 [4-HA, 4-hydroxybenzoic acid]	inhibited significantly	121.2 ± 1.9	127.7 ± 3.1	1.13	134.6 s and 134.6 ± 4.5 s	1.24	147.3 s and 147.3 ± 5.8 s	dose-dependently inhibited	1.53	60.3 ± 5.6	significantly degraded	significantly decreased	–	–
COc1ccc(C(=O)O)cc1O [IVA, isovanillic acid]	–	118.5 ± 1.8	119.7 ± 2.8	–	123.5 ± 2.2 s	1.09	129.4 ± 3.4 s	dose-dependently inhibited	1.70	67.0 ± 4.0	significantly degraded	significantly decreased	inhibited significantly	increased APTT in a concentration-dependent manner
O=C(O)c1ccc(O)c(O)c1 [PA, protocatechuic acid]	inhibited significantly	119.9 ± 2.4	122.1 ± 1.4	–	126.3 ± 2.9 s	1.13	133.7 ± 5.2 s	dose-dependently inhibited	1.33	52.5 ± 4.4	significantly degraded	significantly decreased	–	–
